Like-named read-outs stand apart in the source and are kept apart here.
Legend:
human PPARalpha = biological target: T1, human PPARalpha (Homo sapiens, UniProt Q07869); assay: Cellular PPARalpha assay (HEK PPARalpha reporter cell line, luciferase); assay type: cell-based; settings: 24 h incubation
T1 construct: human PPARalpha receptor (amino acids S167-Y468); expressed in transfected cells; plasmid pcDNA3
T1 sequence (Q07869 167-468): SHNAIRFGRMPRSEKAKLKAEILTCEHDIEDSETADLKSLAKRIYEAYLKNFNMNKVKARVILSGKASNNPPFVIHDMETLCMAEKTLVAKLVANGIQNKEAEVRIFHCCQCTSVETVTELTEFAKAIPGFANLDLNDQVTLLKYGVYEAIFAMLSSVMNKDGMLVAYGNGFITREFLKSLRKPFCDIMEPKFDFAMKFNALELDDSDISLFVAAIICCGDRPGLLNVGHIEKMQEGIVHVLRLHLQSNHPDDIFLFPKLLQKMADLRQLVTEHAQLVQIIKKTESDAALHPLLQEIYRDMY
Protocol: The activity of the compounds was tested as follows. The potency of substances which bind to human PPARalpha and activate it in an agonistic manner is analyzed using a stably transfected HEK cell line (HEK=human embryo kidney) which is referred to here as PPARalpha reporter cell line. It contains two genetic elements, a luciferase reporter element (pdeltaM-GAL4-Luc-Zeo) and a PPARalpha fusion protein (GR-GAL4-humanPPARalpha-LBD) which mediates expression of the luciferase reporter element depending on a PPARalpha ligand. The stably and constitutively expressed fusion protein GR-GAL4-humanPPARalpha-LBD binds in the cell nucleus of the PPARalpha reporter cell line via the GAL4 protein portion to the GAL4 DNA binding motifs 5′-upstream of the luciferase reporter element which is stably integrated in the genome of the cell line. There is only weak expression of the luciferase reporter gene in the absence of a PPARalpha ligand if fatty acid-depleted fetal calf serum (cs-FCS) is used in the assay. PPARalpha ligands bind and activate the PPARalpha fusion protein and thereby stimulate the expression of the luciferase reporter gene. The luciferase which is formed can be detected by means of chemiluminescence via an appropriate substrate.
The PPARalpha reporter cell line was prepared in two stages. Firstly, the luciferase reporter element was constructed and stably transfected into HEK cells. For this purpose, five binding sites of the yeast transcription factor GAL4 (Accession # AF264724) were cloned in 5′-upstream of a 68 bp-long minimal MMTV promoter (Accession # V01175). The minimal MMTV promoter section contains a CCAAT box and a TATA element in order to enable efficient transcription by RNA polymerase II. The cloning and sequencing of the GAL4-MMTV construct took place in analogy to the description of Sambrook J. et. al. (Molecular cloning, Cold Spring Harbor Laboratory Press, 1989). Then the complete Photinus pyralis gene (Accession # M15077) was cloned in 3′-downstream of the GAL4-MMTV element. After sequencing, the luciferase reporter element consisting of five GAL4 binding sites, MMTV promoter and luciferase gene was recloned into a plasmid which confers zeocin resistance in order to obtain the plasmid pdeltaM-GAL4-Luc-Zeo. This vector was transfected into HEK cells in accordance with the statements in Ausubel, F. M. et al. (Current protocols in molecular biology, Vol. 1-3, John Wiley & Sons, Inc., 1995).
In a second step, the PPARalpha fusion protein (GR-GAL4-humanPPARalpha-LBD was introduced into the stable cell clone described. For this purpose, initially the cDNA coding for the N-terminal 76 amino acids of the glucocorticoid receptor (Accession # P04150) was linked to the cDNA section coding for amino acids 1-147 of the yeast transcription factor GAL4 (Accession # P04386). The cDNA of the ligand-binding domain of the human PPARalpha receptor (amino acids S167-Y468; Accession # S74349) was cloned in at the 3′-end of this GR-GAL4 construct. The fusion construct prepared in this way (GR-GAL4-humanPPARalpha-LBD) was recloned into the plasmid pcDNA3 (Invitrogen) in order to enable constitutive expression therein by the cytomegalovirus promoter. This plasmid was linearized with a restriction endonuclease and stably transfected into the previously described cell clone containing the luciferase reporter element. The finished PPARalpha reporter cell line which contains a luciferase reporter element and constitutively expresses the PPARalpha fusion protein (GR-GAL4-human PPARalpha-LBD) was isolated by selection with zeocin (0.5 mg/ml) and G418 (0.5 mg/ml).
The activity of PPARalpha agonists is determined in a 3-day assay which is described below: […]

human PPARdelta = biological target: T2, human PPARdelta (Homo sapiens, UniProt Q03181); assay: Cellular PPARdelta assay (HEK PPARdelta reporter cell line, luciferase); assay type: cell-based; settings: 24 h incubation
T2 construct: human PPARdelta receptor (amino acids S139-Y441); expressed in transfected cells; plasmid pcDNA3
T2 sequence (Q03181 139-441): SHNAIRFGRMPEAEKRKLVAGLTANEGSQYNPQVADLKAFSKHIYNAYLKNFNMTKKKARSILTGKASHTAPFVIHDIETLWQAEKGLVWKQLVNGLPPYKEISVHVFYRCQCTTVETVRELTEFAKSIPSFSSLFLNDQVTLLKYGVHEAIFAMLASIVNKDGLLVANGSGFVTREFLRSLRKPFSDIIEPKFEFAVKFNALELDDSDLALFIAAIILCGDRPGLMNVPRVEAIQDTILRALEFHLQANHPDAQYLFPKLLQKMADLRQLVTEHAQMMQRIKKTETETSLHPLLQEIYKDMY
Protocol: The raw data from the luminometer are transferred into a Microsoft Excel file. Dose-effect plots and EC50 values of PPAR agonists are calculated using the XL.Fit program as specified by the manufacturer (IDBS). […] Compounds of the invention of the formula I activate the PPARalpha receptor. Determination of EC50 values of PPAR agonists in the cellular PPARdelta assay The potency of substances which bind to human PPARdelta and activate it in an agonistic manner is analyzed using a stably transfected HEK cell line (HEK=human embryo kidney) which is referred to here as PPARdelta reporter cell line. In analogy to the assay described for PPARalpha, the PPARdelta reporter cell line also contains two genetic elements, a luciferase reporter element (pdeltaM-GAL4-Luc-Zeo) and a PPARdelta fusion protein (GR-GAL4-humanPPARdelta-LBD) which mediates expression of the luciferase reporter element depending on a PPARdelta ligand. The stably and constitutively expressed fusion protein GR-GAL4-humanPPARdelta-LBD binds in the cell nucleus of the PPARdelta reporter cell line via the GAL4 protein portion to the GAL4 DNA binding motifs 5′-upstream of the luciferase reporter element which is stably integrated in the genome of the cell line. There is only little expression of the luciferase reporter gene in the absence of a PPARdelta ligand if fatty acid-depleted fetal calf serum (cs-FCS) is used in the assay. PPARdelta ligands bind and activate the PPARdelta fusion protein and thereby stimulate expression of the luciferase reporter gene. The luciferase which is formed can be detected by means of chemiluminescence via an appropriate substrate.
The production of the stable PPARdelta reporter cell line is based on a stable HEK-cell clone which was stably transfected with a luciferase reporter element. This step was already described above in the section “construction of the PPARalpha reporter cell line”. In a second step, the PPARdelta fusion protein (GR-GAL4-humanPPARdelta-LBD was stably introduced into this cell clone. For this purpose, the cDNA coding for the N-terminal 76 amino acids of the glucocorticoid receptor (Accession # P04150) was linked to the cDNA section coding for amino acids 1-147 of the yeast transcription factor GAL4 (Accession # P04386). The cDNA of the ligand-binding domain of the human PPARdelta receptor (amino acids S139-Y441; Accession # L07592) was cloned in at the 3′-end of this GR-GAL4 construct. The fusion construct prepared in this way (GR-GAL4-humanPPARdelta-LBD) was recloned into the plasmid pcDNA3 (Invitrogen) in order to enable constitutive expression by the cytomegalovirus promoter. This plasmid was linearized with a restriction endonuclease and stably transfected into the previously described cell clone containing the luciferase reporter element. The resulting PPARdelta reporter cell line which contains a luciferase reporter element and constitutively expresses the PPARdelta fusion protein (GR-GAL4-human PPARdelta-LBD) was isolated by selection with zeocin (0.5 mg/ml) and G418 (0.5 mg/ml).
The activity of PPARdelta agonists is determined in a 3-day assay in exact analogy to the procedure already described for the PPARalpha reporter cell line except that the PPARdelta reporter cell line and a specific PPARdelta agonist was used as a standard to control test efficacy. PPARdelta EC50 values in the range from 0.3 nM to >10 μM were measured for the PPAR agonists of Examples 1 to 69 described in this application. Compounds of the invention of the formula I activate the PPARdelta receptor.

PPARdelta [1] = biological target: T3, PPARdelta (Mus musculus, UniProt P35396); settings: diabetic animal model; cited from earlier work
T3 sequence (P35396 1-440): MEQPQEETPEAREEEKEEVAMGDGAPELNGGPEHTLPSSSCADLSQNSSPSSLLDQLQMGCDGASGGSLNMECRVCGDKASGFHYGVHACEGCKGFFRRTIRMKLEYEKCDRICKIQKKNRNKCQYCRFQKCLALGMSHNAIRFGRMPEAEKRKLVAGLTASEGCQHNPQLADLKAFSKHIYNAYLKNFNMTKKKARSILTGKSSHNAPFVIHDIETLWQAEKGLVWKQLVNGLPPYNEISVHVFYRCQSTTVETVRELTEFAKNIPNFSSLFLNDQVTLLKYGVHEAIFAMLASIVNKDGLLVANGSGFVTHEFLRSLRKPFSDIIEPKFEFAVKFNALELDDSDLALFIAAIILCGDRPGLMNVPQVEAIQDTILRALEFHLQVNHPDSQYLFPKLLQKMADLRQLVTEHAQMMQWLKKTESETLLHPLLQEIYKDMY

PPARdelta [2] = settings: obese, insulin resistant rhesus monkeys; cited from earlier work
PPARdelta/PPARalpha [3] = settings: rhesus and cynomolgus monkeys; cited from earlier work
PPARdelta/PPARalpha [4] = settings: two weeks clinical trials in healthy volunteers; cited from earlier work

Row | Compound | EC50 (human PPARalpha) [nM] | EC50 (human PPARdelta) [nM] | other results
1 | O=c1[nH]c(-c2cc(F)c(OCc3sc([C@H]4CC[C@H](C(F)(F)F)CC4)nc3CN3CCC(C(F)(F)F)CC3)cc2OC(F)F)no1 [Example 62, 3-{2-Difluoromethoxy-5-fluoro-4-[2-(trans-1,4-trifluoromethyl-cyclohexyl)-4-(4-trifluoromethyl-piperidin-1-ylmethyl)-thiazol-5-ylmethoxy]-phenyl}-4H-1,2,4-oxadiazol-5-one] | > 33000 | 52 | 
2 | CCCc1c(OCCCOc2ccc(OCC(=O)O)cc2)ccc(C(C)=O)c1O [Example L-165041] |  |  | plasma cholesterol (PPARdelta [1]): raises plasma cholesterol
3 | Cc1cc(SCc2sc(-c3ccc(C(F)(F)F)cc3)nc2C)ccc1OCC(=O)O [GW501516] |  |  | HDL-cholesterol (PPARdelta [2]): raises HDL-cholesterol; plasma LDL-cholesterol, triglycerides and insulin levels (PPARdelta [2]): decreases plasma LDL-cholesterol, triglycerides and insulin levels
4 | CCCc1c(OCCCSc2nnc(SCC(=O)O)s2)ccc(C(C)=O)c1O [YM-16638] |  |  | plasma lipids (PPARdelta/PPARalpha [3]): significantly lowers plasma lipids; plasma lipids (PPARdelta/PPARalpha [4]): acts in a similar manner

More lines, main results first:

Row | EC50 (human PPARalpha) [nM] | EC50 (human PPARdelta) [nM] | Compound | other results
5 | 304 | 11 | CCC(Oc1ccc(-c2noc(=O)[nH]2)c(F)c1)c1sc([C@H]2CC[C@H](C(F)(F)F)CC2)nc1C (stereo partly drawn) [Example 66, 3-(2-Fluoro-4-{1-[4-methyl-2-(trans-1,4-trifluoromethyl-cyclohexyl)-thiazol-5-yl]-propoxy}-phenyl)-4H-1,2,4-oxadiazol-5-one] | 
6 | > 33000 | 130 | CCC(Oc1ccc(-c2noc(=O)[nH]2)c(F)c1)c1sc([C@H]2CC[C@H](C(F)(F)F)CC2)nc1CN1CCC(C(F)(F)F)CC1 (stereo partly drawn) [Example 68, 3-(2-Fluoro-4-{1-[2-(trans-1,4-trifluoromethyl-cyclohexyl)-4-(4-trifluoromethyl-piperidin-1-ylmethyl)-thiazol-5-yl]-propoxy}-phenyl)-4H-1,2,4-oxadiazol-5-one] | 

Reference: patent US7709481B2, “Phenyl-1,2,4-oxadiazolone derivatives, processes for their preparation and methods for their use as pharmaceuticals” (Sanofi-Aventis, priority 2005, dated 2010)
